Results as given in patent US6855730B2, “3-methylidenyl-2-indolinone modulators of protein kinase” (Sugen, Inc., priority 1998, dated 2005).

Experiments:
PDGFR-β = molecular target: T1, PDGFR-β (Homo sapiens, UniProt P09619); assay: Biochemical PDGFR assay (ELISA, PDGFR-β expressing NIH 3T3 cell lysate); details: read-out: bio PDGF IC50
T1 construct: host or cells: NIH 3T3
In short: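 Phosphorylation was read by ELISA (anti-phosphotyrosine serum, peroxidase secondary, ABTS at 410 nm) after a 30 min room-temperature reaction with 20 μM ATP, EDTA-stopped. Kinase was lysate-derived PDGFR-β (NIH 3T3) immobilised via 28D4C10 antibody, compound added 30 min before ATP.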

EGFR = EGFR (Homo sapiens, UniProt P00533); assay: Biochemical EGFR assay (ELISA, A431 cell lysate); set-up: A431 cell lysate (Screening Lab, SUGEN, Inc.); host or cells: A431; details: read-out: bio EGFr IC50
Sequence of EGFR (P00533 25-1210): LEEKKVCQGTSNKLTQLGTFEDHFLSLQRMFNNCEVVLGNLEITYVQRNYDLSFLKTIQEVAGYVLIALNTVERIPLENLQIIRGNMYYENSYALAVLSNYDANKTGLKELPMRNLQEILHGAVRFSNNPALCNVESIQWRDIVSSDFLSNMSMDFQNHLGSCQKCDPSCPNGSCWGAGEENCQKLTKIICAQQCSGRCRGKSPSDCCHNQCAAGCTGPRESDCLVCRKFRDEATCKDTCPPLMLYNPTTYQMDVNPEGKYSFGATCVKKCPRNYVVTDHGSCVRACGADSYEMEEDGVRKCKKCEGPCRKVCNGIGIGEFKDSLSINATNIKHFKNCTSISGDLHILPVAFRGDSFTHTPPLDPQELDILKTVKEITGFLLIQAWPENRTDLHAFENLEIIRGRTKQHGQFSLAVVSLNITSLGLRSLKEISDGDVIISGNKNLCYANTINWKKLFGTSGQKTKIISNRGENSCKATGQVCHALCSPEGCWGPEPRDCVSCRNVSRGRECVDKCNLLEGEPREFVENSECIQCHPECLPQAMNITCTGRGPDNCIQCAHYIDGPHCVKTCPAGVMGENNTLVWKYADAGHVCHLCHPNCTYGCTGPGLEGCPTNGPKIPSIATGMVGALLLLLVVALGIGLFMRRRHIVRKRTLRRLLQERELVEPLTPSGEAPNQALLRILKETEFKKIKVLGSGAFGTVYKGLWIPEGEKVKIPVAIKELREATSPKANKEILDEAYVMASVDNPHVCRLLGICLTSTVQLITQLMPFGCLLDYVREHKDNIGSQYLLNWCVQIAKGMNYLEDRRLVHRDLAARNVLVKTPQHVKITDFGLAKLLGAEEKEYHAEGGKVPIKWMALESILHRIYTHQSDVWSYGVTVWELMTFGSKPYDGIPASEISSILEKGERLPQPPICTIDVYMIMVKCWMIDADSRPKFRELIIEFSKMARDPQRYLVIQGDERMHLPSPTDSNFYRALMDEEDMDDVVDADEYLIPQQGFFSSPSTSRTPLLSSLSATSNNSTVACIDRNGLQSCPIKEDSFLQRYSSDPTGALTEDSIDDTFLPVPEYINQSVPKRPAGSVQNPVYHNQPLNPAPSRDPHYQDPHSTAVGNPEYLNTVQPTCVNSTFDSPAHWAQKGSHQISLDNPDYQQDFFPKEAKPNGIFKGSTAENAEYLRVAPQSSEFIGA
Experimental: This assay measures the in vitro kinase activity of EGFR using ELISA.
Materials and Reagents • 1. […] SUMO1 monoclonal anti-EGFR antibody (Biochemistry Lab, SUGEN, Inc.). • 3. PBS (Dulbecco's Phosphate-Buffered Saline, Gibco Catalog No. 450-1300EB). • 4. TBST Buffer
• 6. A431 cell lysate (Screening Lab, SUGEN, Inc.) • 7. TBS Buffer:
Prepare a 1.0 mM solution in dH2O. This reagent should be made up immediately prior to use and kept on ice. • 10. MnCl2.
Prepare a 1.0 M stock solution in dH2O. • 11. ATP/MnCl2 phosphorylation mix
This reagent should be prepared immediately before use and kept on ice. • 12. NUNC 96-well V bottom polypropylene plates (Applied Scientific Cat. No. AS-72092). • 13. Ethylenediaminetetraacetic acid (EDTA)
Prepare 200 mM working solution in dH2O. Adjust to pH 8.0 with 10 N NaOH. • 14. Rabbit polyclonal anti-phosphotyrosine serum (Biochemistry Lab, SUGEN, Inc.) • 15. Goat anti-rabbit IgG peroxidase conjugate (Biosource Cat. No. ALI0404) • 16. ABTS (2,2′-azino-bis(3-ethylbenzthiazoline-6-sulfonic acid), Sigma Cat. No. A-1888).
Mix first two ingredients in about 900 ml dH2O, adjust pH to 4.0 with phosphoric acid. Add ABTS, cover, let sit about 0.5 hr., filter. The solution should be kept in the dark at 4° C. until ready to use. • 17. Hydrogen peroxide 30% solution (Fisher Cat. No. H325) • 18. ABTS/H2O2 • Mix 15 ml ABTS solution and 2.0 μl H2O2. Prepare 5 minutes before use. • 19. 0.2 M HCl
Procedure • 1. Coat Corning 96 well ELISA plates with 0.5 μg SUMO1 in 100 μl PBS per well, store overnight at 4° C. • 2. Remove unbound SUMO1 from wells by inverting plate to remove liquid., Wash 1× with dH2O. Pat the plate on a paper towel to remove excess liquid. • 3. Add 150 μl of Blocking Buffer to each well. Incubate for 30 min. at room temperature with shaking. • 4. Wash plate 3× with deionized water, then once with TBST. Pat plate on a paper towel to remove excess liquid and bubbles. • 5. Dilute lysate in PBS (7 μg lysate/100 μl PBS). • 6. Add 100 μl of diluted lysate to each well. Shake at room temperature for 60 min. • 7. Wash plates as described in 4, above. • 8. Add 120 μl TBS to ELISA plate containing captured EGFR. • 9. Dilute test compound 1:10 in TBS in 96-well polypropylene plates (i.e. 10 μl compound+90 μl TBS). • 10. Add 13.5 μl diluted test compound to ELISA plate. […] Incubate for 30 minutes while shaking at room temperature. • 12. […] After 5 minutes, stop reaction by adding 16.5 μl of 200 mM EDTA (pH 8.0) to each well, shaking continuously. After the EDTA has been added, shake for 1 min. • 14. Wash 4× with deionized water, twice with TBST. • 15. Add 100 μl anti-phosphotyrosine (1:3000 dilution in TBST) per well. Incubate 30-45 min. at room temperature, with shaking. • 16. Wash as described in 4, above. • 17. Add 100 μl Biosource Goat anti-rabbit IgG peroxidase conjugate (1:2000 dilution in TBST) to each well. Incubate 30 min. at room temperature, with shaking. • 18. Wash as described in 4, above. • 19. Add 100 μl of ABTS/H2O2 solution to each well. • 20. Incubate 5 to 10 minutes with shaking. Remove any bubbles. • 21. If necessary stop reaction with the addition of 100 μl 1 0.2 M HCl per well. • 22. Read assay on Dynatech MR7000 ELISA reader. Test Filter: 410 nM Reference Filter: 630 Nm.

[1] = molecular target: Myc-GyrB-FGFR fusion protein (Homo sapiens, UniProt P11362); assay: Biochemical FGFR assay (ELISA); details: read-out: bio fgfR1 IC50
Sequence of Myc-GyrB-FGFR fusion protein (P11362 478-767 limits assumed): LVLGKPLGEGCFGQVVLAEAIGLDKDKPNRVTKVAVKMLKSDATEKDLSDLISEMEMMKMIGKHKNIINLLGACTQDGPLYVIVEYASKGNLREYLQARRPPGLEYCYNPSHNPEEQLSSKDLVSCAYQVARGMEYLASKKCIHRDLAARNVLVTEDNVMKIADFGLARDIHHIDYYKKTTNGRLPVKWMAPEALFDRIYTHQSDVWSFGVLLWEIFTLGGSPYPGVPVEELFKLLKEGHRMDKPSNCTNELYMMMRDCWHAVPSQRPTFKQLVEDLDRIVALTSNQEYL

flkGST = molecular target: T2, flkGST (Homo sapiens, UniProt P35968); assay: bio flkGST assay; format: biochemical
T2 construct: GST
T2 sequence (P35968 786-1356 limits assumed): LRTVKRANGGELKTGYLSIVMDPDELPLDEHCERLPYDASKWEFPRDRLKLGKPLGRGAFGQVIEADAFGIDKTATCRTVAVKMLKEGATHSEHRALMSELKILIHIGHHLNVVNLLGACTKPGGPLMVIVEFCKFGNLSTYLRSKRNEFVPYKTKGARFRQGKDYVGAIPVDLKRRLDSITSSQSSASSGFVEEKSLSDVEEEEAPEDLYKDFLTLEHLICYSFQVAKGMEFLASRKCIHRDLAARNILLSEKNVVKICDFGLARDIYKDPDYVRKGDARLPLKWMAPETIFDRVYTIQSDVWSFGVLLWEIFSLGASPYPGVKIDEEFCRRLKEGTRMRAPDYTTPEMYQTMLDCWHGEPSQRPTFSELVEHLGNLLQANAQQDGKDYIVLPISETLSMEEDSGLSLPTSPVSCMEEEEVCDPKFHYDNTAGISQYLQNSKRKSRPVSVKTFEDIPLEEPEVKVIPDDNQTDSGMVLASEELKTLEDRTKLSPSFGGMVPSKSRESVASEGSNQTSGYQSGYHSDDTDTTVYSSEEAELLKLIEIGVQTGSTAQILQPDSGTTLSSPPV

pyk2 = pyk2 (Homo sapiens, UniProt Q14289); assay: bio pyk2 assay; format: biochemical
Sequence of pyk2 (Q14289 whole entry, species assumed): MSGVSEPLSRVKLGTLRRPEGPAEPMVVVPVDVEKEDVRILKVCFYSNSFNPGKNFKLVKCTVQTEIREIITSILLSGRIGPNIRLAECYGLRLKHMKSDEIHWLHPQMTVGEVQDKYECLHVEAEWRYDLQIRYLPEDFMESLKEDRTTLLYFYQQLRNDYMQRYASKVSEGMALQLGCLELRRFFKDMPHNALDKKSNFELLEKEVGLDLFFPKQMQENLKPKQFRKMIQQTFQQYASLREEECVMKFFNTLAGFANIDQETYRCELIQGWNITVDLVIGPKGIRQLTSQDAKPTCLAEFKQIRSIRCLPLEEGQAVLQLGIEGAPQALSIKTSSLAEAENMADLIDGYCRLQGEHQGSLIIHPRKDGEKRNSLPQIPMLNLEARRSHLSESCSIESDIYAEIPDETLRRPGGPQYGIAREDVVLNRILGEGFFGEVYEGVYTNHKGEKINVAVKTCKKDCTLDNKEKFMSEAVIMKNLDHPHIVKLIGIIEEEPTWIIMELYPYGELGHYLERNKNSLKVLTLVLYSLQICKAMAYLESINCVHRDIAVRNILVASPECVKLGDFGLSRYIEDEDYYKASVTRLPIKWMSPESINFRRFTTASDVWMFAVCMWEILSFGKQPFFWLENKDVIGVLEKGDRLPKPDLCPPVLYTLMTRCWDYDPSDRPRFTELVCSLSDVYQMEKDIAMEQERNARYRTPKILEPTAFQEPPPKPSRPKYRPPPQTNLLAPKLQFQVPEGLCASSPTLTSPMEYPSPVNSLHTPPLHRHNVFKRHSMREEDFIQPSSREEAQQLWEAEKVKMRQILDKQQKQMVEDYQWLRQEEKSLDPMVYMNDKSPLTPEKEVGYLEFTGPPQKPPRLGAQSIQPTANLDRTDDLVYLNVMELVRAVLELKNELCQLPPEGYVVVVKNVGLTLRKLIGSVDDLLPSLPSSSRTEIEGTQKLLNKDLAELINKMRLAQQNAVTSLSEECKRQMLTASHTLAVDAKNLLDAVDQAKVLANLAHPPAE

T1 sequence (P09619 33-1106): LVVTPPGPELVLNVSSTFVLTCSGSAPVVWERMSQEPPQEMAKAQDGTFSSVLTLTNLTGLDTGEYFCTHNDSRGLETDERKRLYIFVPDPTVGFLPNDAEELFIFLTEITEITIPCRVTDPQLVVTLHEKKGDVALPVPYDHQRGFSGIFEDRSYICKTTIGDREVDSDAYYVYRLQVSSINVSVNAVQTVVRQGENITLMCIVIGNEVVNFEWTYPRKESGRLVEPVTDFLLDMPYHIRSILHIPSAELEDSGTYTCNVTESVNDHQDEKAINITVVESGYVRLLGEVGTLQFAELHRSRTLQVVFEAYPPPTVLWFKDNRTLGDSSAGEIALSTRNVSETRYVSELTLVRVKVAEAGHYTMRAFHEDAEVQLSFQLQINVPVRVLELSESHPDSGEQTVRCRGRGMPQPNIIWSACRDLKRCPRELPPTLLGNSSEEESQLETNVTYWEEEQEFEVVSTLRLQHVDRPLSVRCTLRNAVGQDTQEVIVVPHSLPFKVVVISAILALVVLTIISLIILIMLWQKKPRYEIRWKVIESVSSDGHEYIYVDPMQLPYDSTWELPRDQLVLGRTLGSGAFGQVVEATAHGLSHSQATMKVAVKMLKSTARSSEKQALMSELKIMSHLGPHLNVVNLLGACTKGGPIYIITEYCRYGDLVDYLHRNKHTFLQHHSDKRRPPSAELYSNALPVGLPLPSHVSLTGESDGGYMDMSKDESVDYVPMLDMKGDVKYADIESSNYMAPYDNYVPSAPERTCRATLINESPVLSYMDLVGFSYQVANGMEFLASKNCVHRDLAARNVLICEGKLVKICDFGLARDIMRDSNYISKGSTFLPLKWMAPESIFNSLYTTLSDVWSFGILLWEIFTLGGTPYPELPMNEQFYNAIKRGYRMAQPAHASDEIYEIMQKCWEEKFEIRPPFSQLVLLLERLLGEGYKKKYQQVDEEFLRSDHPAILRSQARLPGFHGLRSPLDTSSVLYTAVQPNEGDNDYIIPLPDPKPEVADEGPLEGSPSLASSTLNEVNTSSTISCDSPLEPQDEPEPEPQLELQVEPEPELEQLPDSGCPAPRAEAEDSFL

Compound | IC50 (PDGFR-β) [µM] | IC50 (EGFR) [µM] | IC50 [1] [µM] | IC50 (flkGST) [µM] | IC50 (pyk2) [µM]
CCOC(=O)c1[nH]c(/C=C2\C(=O)Nc3cc(-c4ccccc4)ccc32)c(CCC(=O)O)c1C [Example 144, 4-(2-Carboxyethyl)-3-methyl-5-(2-oxo-6-phenyl-1,2-dihydroindol-3-ylidenemethyl)-1H-pyrrole-2-carboxylic acid ethyl ester] | > 100 | > 100 | 2.77 | 9.03 | 
CCOC(=O)c1[nH]c(/C=C2\C(=O)Nc3ccc(S(=O)(=O)NC(C)C)cc32)c(CCC(=O)O)c1C [Example 148, 4-(2-Carboxyethyl)-5-(5-isopropylsulfamoyl-2-oxo-1,2-dihydro-indol-3-ylidenemethyl)-3-methyl-1H-pyrrole-2-carboxylic acid ethyl ester] | > 100 | > 100 | > 20 | 23.9 | 
CCOC(=O)c1c(C)[nH]c(/C=C2\C(=O)Nc3cccc(CCO)c32)c1CCCN1CCN(C)CC1 [Example 136, 5-[4-(2-Hydroxyethyl)-2-oxo-1,2-dihydroindol-3-ylidenemethyl]-2-methyl-4-[3-(4methylpiperazin-1-yl)-propyl]-1H-pyrrole-3-carboxylic acid ethyl ester] | 27 |  |  | 0.56 | 2.77
CCOC(=O)c1[nH]c(/C=C2\C(=O)Nc3ccc(S(=O)(=O)NC)cc32)c(CCC(=O)O)c1C [Example 146] | > 100 | > 100 | > 20 | 15.6 | 
CN(C)CCCc1c(/C=C2\C(=O)Nc3cccc(CCO)c32)[nH]c2ccccc12 [Example 150, 3-[3-(3-Dimethylaminopropyl)-1H-indol-2-ylmethylene]-4-(2-hydroxyethyl)-1,3-dihydroindol-2-one] | 0.34 |  |  | 0.2 | 0.01
CCOC(=O)c1c(C)[nH]c(/C=C2\C(=O)Nc3ccc(S(=O)(=O)NC)cc32)c1CCCN1CCN(C)CC1 [Example 119, 2-Methyl-4-[3-(4-methylpiperazin-1-yl)-propyl]-5-(5-methylsulfamoyl-2-oxo-1,2-dihydroindol-3-ylidenemethyl)-1H-pyrrole-3-carboxylic acid ethyl ester] | > 100 |  |  | 6.33 | 2.02
CCOC(=O)c1[nH]c(/C=C2\C(=O)Nc3ccc(OC)cc32)c(CCC(=O)O)c1C [Example 140, 4-(2-Carboxyethyl)-5-(5-methoxy-2-oxo-1,2-dihydroindol-3-ylidenemethyl)-3-methyl-1H-pyrrole-2-carboxylic acid ethyl ester] | > 100 | > 100 | 12.8 | 6.65 | 
CCOC(=O)c1[nH]c(/C=C2\C(=O)Nc3ccc(Br)cc32)c(CCC(=O)O)c1C [Example 143, 5-(5-Bromo-2-oxo-1,2-dihydroindol-3-ylidenemethyl)-4-(2-carboxy-ethyl)-3-methyl-1H-pyrrole-2-carboxylic acid ethyl ester] | > 100 | > 100 | 16.6 | 26.9 | 
CCOC(=O)c1c(C)[nH]c(/C=C2\C(=O)Nc3ccc(Cl)cc32)c1CCC(=O)O [Example 112, 4-(2-Carboxyethyl)-5-(5-chloro-2-oxo-1,2-dihydroindol-3-ylidenemethyl)-2-methyl-1H-pyrrole-3-carboxylic acid ethyl ester] | 0.02 | > 100 | > 20 | 2.36 | 
CCOC(=O)c1c(C)[nH]c(/C=C2\C(=O)Nc3ccc(S(=O)(=O)NC)cc32)c1CCCN1CCOCC1 [Example 118, 2-Methyl-5-(5-methylsulfamoyl-2-oxo-1,2-dihydroindol-3-ylidenemethyl)-4-(3-morpholin-4-ylpropyl)-1H-pyrrole-3-carboxylic acid ethyl ester] | > 100 |  |  | 9.29 | 4.24
CCOC(=O)c1[nH]c(C=C2C(=O)Nc3ccc(S(N)(=O)=O)cc32)c(CCC(=O)O)c1C [Example 145, 4-(2-Carboxyethyl)-3-methyl-5-(2-oxo-5-sulfamoyl-1,2-dihydro-indol-3-ylidenemethyl)-1H-pyrrole-2-carboxylic acid ethyl ester] | > 100 | > 100 | 15.6 | 11.8 | 
CCOC(=O)c1[nH]c(/C=C2\C(=O)Nc3cccc(C)c32)c(CCC(=O)O)c1C [Example 139, 4-(2-Carboxyethyl)-3-methyl-5-(4-methyl-2-oxo-1,2-dihydroindol-3-ylidenemethyl)-1H-pyrrole-2-carboxylic acid ethyl ester] | > 100 | > 100 | 12.6 | 7.56 | 
CCOC(=O)c1c(C)[nH]c(/C=C2\C(=O)Nc3cccc(CCO)c32)c1CCCN1CCCC1 [Example 132, 5-[4-(2-Hydroxyethyl)-2-oxo-1,2-dihydroindol-3-ylidenemethyl]-2-methyl-4-(3-pyrrolidin-1-ylpropyl)-1H-pyrrole-3-carboxylic acid ethyl ester] | 0.65 |  |  |  | 0.22
CCOC(=O)c1[nH]c(/C=C2\C(=O)Nc3cc(OC)ccc32)c(CCC(=O)O)c1C [Example 141, 4-(2-Carboxyethyl)-5-(6-methoxy-2-oxo-1,2-dihydroindol-3-ylidenemethyl)-3-methyl-1H-pyrrole-2-carboxylic acid ethyl ester] | 85.1 | > 100 | 8.38 | 11.5 | 
CCOC(=O)c1c(C)[nH]c(/C=C2\C(=O)Nc3cccc(CCO)c32)c1CCCN1CCOCC1 [Example 131, 5-[4-(2-Hydroxyethyl)-2-oxo-1,2-dihydroindol-3-ylidenemethyl]-2-methyl-4-(3-morpholin-4-ylpropyl)-1H-pyrrole-3-carboxylic acid ethyl ester] | 23.2 |  |  |  | 2.18
CCOC(=O)c1[nH]c(/C=C2\C(=O)Nc3cc(Br)ccc32)c(CCC(=O)O)c1C [Example 142, 5-(6-Bromo-2-oxo-1,2-dihydroindol-3-ylidenemethyl)-4-(2-carboxy-ethyl)-3-methyl-1H-pyrrole-2-carboxylic acid ethyl ester] | > 100 | > 100 | 5.9 | 21.1 | 
CCOC(=O)c1[nH]c(/C=C2\C(=O)Nc3ccc(S(=O)(=O)N(C)C)cc32)c(CCC(=O)O)c1C [Example 147, 4-(2-Carboxyethyl)-5-(5-dimethylsulfamoyl-2-oxo-1,2-dihydro-indol-3-ylidenemethyl)-3-methyl-1H-pyrrole-2-carboxylic acid ethyl ester] | > 100 | > 100 | > 20 | 15.3 | 
